# Experimental data as given in US8710040B2, “Pharmaceutical composition comprising gabapentin or an analogue thereof and an α-aminoamide and its analgesic use” (Newron Pharmaceuticals S.p.A., priority 2001, dated 2014).
# Like-named read-outs stand apart in the source and are kept apart here.
# Experiments:
# [1] = system: monoarthritic rat model of chronic pain induced by complete Freund's adjuvant (CFA); assay: Antiallodynic effect (von Frey mechanical allodynia) in the monoarthritic rat model of chronic pain induced by CFA; assay type: in vivo; conditions: for ED50: Rattus norvegicus, po, read-out: ED50 (compound alone); for ED50 (as restated in the formulation example): compound alone, quoted in the 20 mg formulation example; for Interaction with GBP on the antiallodynic effect (ED50mix compared with ED50add or ED50 alone): oral co-administration with GBP at fixed ratios
# Description: This procedure involves the determination of the total amount in the mixture that is required to produce a specified synergistic antiallodynic effect at the 50% dose level (ED50mix) and the corresponding total amount that would be expected under simple additivity (ED50add). Where it is established that ED50mix<ED50add for a specific fixed ratio, then the composition has a synergistic antiallodynic effect. Both the quantities ED50mix and ED50add are random variables. ED50mix was determined from the dose-response curve for a specific fixed ratio of the components; ED50add was calculated from the ED50 values for the individual drugs.
# Procedure for Testing the Antiallodynic Effect of the Composition of the Invention
# Adult male. Wistar rats (body weight 175-200 g, Harlan-Nossan, Italy) were housed in separate cages with free access to water and standard rat chow at a constant temperature (22±0.5° C.) and relative humidity (60-70%), with a 6.00 am to 6.00 pm light-dark period.
# The inflammation was induced in rats by an intra-plantar injection of complete Freund's adjuvant (CFA, Sigma-100 μl) into left hind paw containing heat-killed and dried Mycobacterium tuberculosis in a mixture of paraffin oil and mannide monooleate as emulsifying agent. A group of control animal were injected with 100 μl of mineral oil, the incomplete Freund's adjuvant (IFA, Sigma).
# Each animal was allowed to develop the arthritis over an 8-9 day period of before testing.
# Rats were placed in individual plastic boxes on a mesh metal floor and allowed to acclimatize for about 30 min. A series of calibrated von Frey hair with logarithmically incremental stiffness (from 2.83 to 5.88×Log10 of the bending force, g) were applied to the paw with the up-down method. Each hair was presented perpendicularly against the paw, with sufficient force to cause slight bending, and held approximately 2-3 sec. The filament was recorded when a positive response was noted (paw withdrawn, licking or shaking).
# The antiallodynic effect was expressed as % MPE (Maximal Possible Effect) at 2 h post-dosing.
# The rats were all dosed orally with various doses of an α-aminoamide alone, GBP alone, combined doses of an α-aminoamide and GBP or vehicle. The dosing volume was 2 ml/kg. The dosing materials were all prepared in the vehicle, (distilled water); drug weights were calculated as the free base.
# Data are presented as mean of 4/6 animals per group/dose.
# The ED50 was defined as the dose producing 50% reversal of mechanical hyperalgesia at 2 h after treatment. An experimental ED50 and 95% confidence intervals (CI) were calculated for each compound alone from the linear regressions fitting the experimental data according to the equation y=a+bx.
# The different α-aminoamides were then combined with GBP at different ratios in relation to their respective ED50 previously calculated (not limiting examples of the ratios are 1:1; 1:3; 1:9 and respectively 1:1, 3:1 and 9:1 ratios) for the evaluation of the synergic effect.
# Multiple (typically 4) doses of each selected ratio were then studied orally for evaluating the synergic effect of the combination.
# Each rat received only one treatment.
# [2] = Rat Rotarod test (motor impairment and ataxia); conditions: in vivo, po, p.o. at 2 hours, dose causing 50% of the animals to fall from the roller, read-out: TD50 (compound alone)
# Description: The Rotarod test is an established method used as predictive of CNS-related side effects in humans, and in particular motor impairment and ataxia.
# The different α-aminoamides were then combined with GBP at different ratios in relation to their respective TD50 previously calculated (a non limiting example of the ratios is the 1:1 ratio) for the evaluation of the possible synergic effect. Data are presented as mean of 8/10 animals per group/dose.
# The test was performed 120 min after drug administration.
# [3] = 2 h after single administration, dose producing 50% reversal of mechanical hyperalgesia, CFA rats
SMILES,ED50 ([1]; 2 h) [mg/kg],ED50 (as restated in the formulation example) [1] [mg],TD50 at 120 min [2] [mg/kg],"ED50 [1, 3] [mg/kg]",Interaction with GBP on the antiallodynic effect (ED50mix compared with ED50add or ED50 alone) [1]
"NCC1(CC(=O)O)CCCCC1 [GBP, 1-(aminomethyl)cyclohexaneacetic acid, reference compound]",12.4,12.40,430,,
"NC(=O)NN=Cc1ccc(Oc2ccc(F)cc2)cc1 [4-(4′-fluoro-phenoxy)benzaldehyde semicarbazone, reference compound]",,,,14.5,
"C[C@H](NCc1ccc(OCc2ccccc2F)cc1)C(N)=O [NW-1029, (S)-(+)-2-[4-(2-fluorobenzyloxy)benzylamino]propanamide]",,0.82,470,0.82,synergic to GBP
"CNC(=O)[C@@H](Cc1ccccc1)NCc1ccc(OCc2ccccc2)cc1 [NW-1037, (R)-(−)-2-[4-benzyloxybenzylamino]-3-phenyl-N-methylpropanamide]",,,,3.45,synergic to GBP
"CNC(=O)[C@H](C)NCc1ccc(OCc2cccc(F)c2)cc1 [NW-1043, (S)-(+)-2-[4-(3-fluorobenzyloxy)-benzylamino]-N-methyl-propanamide]",,,,7.05,synergic to GBP
